Consider 17 compounds from US11731946B2, “Broad spectrum antivirulence, anti-persistence compounds” (priority 2017, dated 2023).

The subject of test [1] is MvfR regulon. The experiment in a line: Quantification of pyocyanin (OD520nm of chloroform-extracted cultures). The format is cell-based, P. aeruginosa. The note with it: Pseudomonas aeruginosa; for activity at 50 µM: read-out: pyocyanin @50 uM (%), compound at 50 uM; for activity at 1 µM: read-out: pyocyanin @1 uM (%), compound at 1 uM; for activity at 10 µM: read-out: pyocyanin @10 uM (%), compound at 10 uM; for IC50: read-out: IC50 pyocyanin (μM).

Test [2] relates to MvfR regulon. The experiment in a line: pqsA gene expression (pqsA-GFP reporter). The test is classed as cell-based, P. aeruginosa. The note with it: Pseudomonas aeruginosa; for activity at 10 µM: read-out: pqsA @10 uM (%), compound at 10 uM; for activity at 50 µM: read-out: pqsA @50 uM (%), compound at 50 uM. The protocol: Experiments were performed to identify compounds that inhibit the MvfR regulon without altering growth, ultimately attenuating P. aeruginosa infection. MvfR is a LysR-type transcriptional regulator that directs HAQs synthesis, including that of its ligands, 4-hydroxy-2-heptylquinoline (HHQ) and 3,4-dihydroxy-2-heptylquinoline (PQS).
MvfR promotes the production of HAQs by binding to and activating the pqs operon, which encodes enzymes for HAQ synthesis. Anthranilic acid (AA), derived from the phnAB, kynABU, and trpEG pathways, is the precursor for HAQs. pqsA encodes an anthranilate-coenzyme A ligase, which activates anthranilic acid and catalyzes the first committed step to HAQ production. The exact roles of PqsB and PqsC are unknown, though both show homology to acyl-carrier-proteins and both are required for HHQ and PQS production. […] The final gene of the operon, pqsE encodes for a putative hydrolase, and while the protein is not required for the synthesis of HAQs, it is necessary for pyocyanin production.
Nanomolar levels of most of these MvfR antagonists impeded the activity of MvfR and in consequence the MvfR virulence regulated ACRP functions, including: (1) the production of the important pro-acute P. aeruginosa virulence factor pyocyanin (see e.g., FIG. 9A) the efficacy of two of these potent inhibitors, D57 and D88, was also confirmed by testing many different MDR P. aeruginosa clinical isolates (see e.g., FIG. 11A-11B), providing further confidence of their inhibitory potency; (2) the expression of the genes that encode the enzymes catalyzing the synthesis of both pro-acute and pro-persistence MvfR-regulated virulence molecules, 4-hydroxyl-2-alkyl-quinolines (HAQs) and 2-aminoacetophenon (2-AA), as assessed by pqsAGFP reporter gene expression (see e.g., FIG. 9B) and HAQ production showing the levels of MvfR inducers/ligands HHQ and PQS as well as of the molecules critical for biofilm and Antibiotic tolerant/persiters cells formation HQNO and 2-AA (see e.g., FIG. 9C); (3) AT/P cell formation (see e.g., FIGS. 11A, 12A); (4) biofilm formation (see e.g., FIG. 12B); and (5) biofilm dispersal of preformed biofilm by potentiating antibiotic action (see e.g., FIG. 11B).

For `Nc1cc([N+](=O)[O-])ccc1NC(=O)CC(=O)Nc1ccc(Oc2ccccc2)cc1` [Compound 75], the activity at 50 µM in test [1] stood at 6.13%. Besides, the activity at 10 µM in test [2] worked out at 9.83%.
For `COc1ccc(NC(=O)CNc2ccc(F)cc2C)cc1` [Compound 27], the activity at 50 µM in test [1] was 102%; in test [2], 86.9%.
Turning to `CN(C(=O)CC(=O)Nc1ccc(C#N)cc1)c1ccc(C#N)cc1` [Compound 89], in test [1], the activity at 1 µM was 95.7%, the activity at 10 µM stood at 102% and the activity at 50 µM amounted to 84.8%. In addition, the activity at 10 µM in test [2] worked out at 98.5%.
On to `N#Cc1ccc(NC(=O)CNc2cccc(F)c2)cc1` [Compound 18], for which the figures for the activity at 50 µM in test [1] and in test [2] were 91.3% and 68%, respectively.
One may read the IC50 as the midpoint of a concentration-inhibition curve. As to `CC(C(=O)Nc1ccc(C#N)cc1)C(=O)Nc1ccc(C#N)cc1` [Compound 95], in test [1], the IC50 was found to be 1.35 µM, the activity at 1 µM is 93.5%, the activity at 10 µM is 23.9% and the activity at 50 µM was found to be 7%. Moreover, in test [2], the activity at 10 µM is 45.7%.
As for `N#Cc1ccc(NC(=O)CNc2ccc(Cl)cc2)cc1` [Compound 28], the IC50 in test [1] came to 20.4 µM; in test [2] (read-out: IC50 pqsA (μM)), 24.6 µM. In addition, the activity at 50 µM was found to be 43.2% in test [1] and 17.7% in test [2].
As to `N#Cc1ccc(NC(=O)C(N)C(=O)Nc2ccc(C#N)cc2)cc1` [Compound 114], in test [1], the activity at 1 µM came to 94.9%, the activity at 10 µM stood at 66.1% and the activity at 50 µM stood at 2.85%. In addition, in test [2], the activity at 10 µM stood at 58.9% and the activity at 50 µM was determined as 1.75%.
`O=C(CC(=O)Nc1ccc(Oc2ccccc2)cc1)Nc1ccc(I)cc1` [Compound 74]: the activity at 50 µM in test [1] was found to be 71.8%. Further, in test [2], the activity at 10 µM came to 86% and the activity at 50 µM amounted to 81.2%.
In the case of `N#Cc1ccc(NC(=O)CC(=O)c2ccc(F)cc2)cc1` [Compound 91], in test [1], the activity at 1 µM came to 99.2%, the activity at 10 µM is 98.3% and the activity at 50 µM is 77.1%. The activity at 10 µM in test [2] worked out at 87.4%.
With `Cc1cc(F)ccc1NCC(=O)Nc1cccc(Cl)c1` [Compound 34], the activity at 50 µM in test [1] came to 96.1%; in test [2], 70.9%.
As to `O=C(CC(=O)Nc1ccc(Oc2ccccc2)cc1)Nc1ccc(Cl)cc1` [Compound 82], in test [1], the IC50 is 0.09 µM, the activity at 1 µM amounted to 40.3%, the activity at 10 µM was determined as 39.9% and the activity at 50 µM is 26%. Moreover, the activity at 10 µM in test [2] is 28.8%.
For the compound `N#Cc1ccc(NC(=O)/C=C/C(=O)Nc2ccc(F)cc2)cc1` [Compound 101], the activity at 50 µM in test [1] was found to be 87.8%. Further, the activity at 10 µM in test [2] worked out at 96.3%.
In the case of `N#Cc1ccc(NC(=O)C(F)C(=O)Nc2ccc(C#N)cc2)cc1` [Compound 111], in test [1], the activity at 1 µM stood at 91.7%, the activity at 10 µM came out at 50.8% and the activity at 50 µM turned out to be 34%. In addition, in test [2], the activity at 10 µM stood at 62.8% and the activity at 50 µM came out at 41.8%.
Regarding `COc1cccc(NC(=O)CNc2ccc(F)cc2C)c1` [Compound 44], the activity at 50 µM is 92.2% in test [1] and 93.7% in test [2].
With `CC(F)(C(=O)Nc1ccc(C#N)cc1)C(=O)Nc1ccc(C#N)cc1` [Compound 109], in test [1], the activity at 1 µM worked out at 98.6%, the activity at 10 µM was found to be 78.2% and the activity at 50 µM amounted to 51.5%. In test [2], the activity at 10 µM stood at 87% and the activity at 50 µM came out at 84.9%.
Turning to `N#Cc1ccc2c(c1)OCCN2C(=O)CC(=O)Nc1ccc(Oc2ccccc2)cc1` [Compound 105], in test [1], the IC50 came to 2.78 µM, the activity at 1 µM was 68%, the activity at 10 µM was 32% and the activity at 50 µM was 11.4%. Besides, the activity at 10 µM in test [2] worked out at 47.3%.
Consider `N#Cc1ccc(NC(=O)CC(=O)Nc2ccc(C#N)cn2)cc1` [Compound 93], for which, in test [1], the activity at 1 µM turned out to be 79.6%, the activity at 10 µM was found to be 53.5% and the activity at 50 µM amounted to 14.3%. In addition, the activity at 10 µM in test [2] is 61.3%.
